Measurements from patent publication US9901095B2, “Processes for the preparation of pesticidal compounds” (Dow AgroSciences LLC, priority 2013, dated 2018).

Assays:
[1] = test system: Green Peach Aphid (Myzus persicae) (MYZUPE); assay: Bioassay on Green Peach Aphid (GPA), foliar spray on cabbage seedlings; type: in vivo; details: 200 ppm spray on cabbage seedlings; live aphids counted after three days; Abbott's correction
Protocol: Several molecules disclosed herein were tested against GPA using procedures described below.
Cabbage seedling grown in 3-in pots, with 2-3 small (3-5 cm) true leaves, were used as test substrate. The seedlings were infested with […] (wingless adult and nymph stages) one day prior to chemical application. Four pots with individual seedlings were used for each treatment. Test compounds (2 mg) were dissolved in 2 mL of acetone/methanol (1:1) solvent, forming stock solutions of 1000 ppm test compound. The stock solutions were diluted 5× with 0.025% Tween 20 in water to obtain the solution at 200 ppm test compound. A hand-held aspirator-type sprayer was used for spraying a solution to both sides of the cabbage leaves until runoff. Reference plants (solvent check) were sprayed with the diluent only containing 20% by volume acetone/methanol (1:1) solvent. Treated plants were held in a holding room for three days at approximately 25° C. and ambient relative humidity (RH) prior to grading. Evaluation was conducted by counting the number of live aphids per plant under a microscope. Percent Control was measured by using Abbott's correction formula (W. S. Abbott, “A Method of Computing the Effectiveness of an Insecticide” J. Econ. Entomol 18 (1925), pp. 265-267) as follows. Corrected % Control=100*(X−Y)/X
X=No. of live aphids on solvent check plants and
Y=No. of live aphids on treated plants
The results are indicated in the table entitled “Table 1: GPA (MYZUPE) and sweetpotato whitefly-crawler (BEMITA) Rating Table”.

[2] = test system: Sweetpotato Whitefly Crawler (Bemisia tabaci) (BEMITA); assay: Bioassay on Sweetpotato Whitefly Crawler, foliar spray on cotton plants; type: in vivo; details: 200 ppm spray on cotton plants; live nymphs counted after 8-9 days; Abbott's correction
Protocol: Cotton plants grown in 3-inch pots, with 1 small (3-5 cm) true leaf, were used at test substrate. The plants were placed in a room with whitely adults. Adults were allowed to deposit eggs for 2-3 days. After a 2-3 day egg-laying period, plants were taken from the adult whitefly room. Adults were blown off leaves using a hand-held Devilbliss sprayer (23 psi). Plants with egg infestation (100-300 eggs per plant) were placed in a holding room for 5-6 days at 82° F. and 50% RH for egg hatch and crawler stage to develop. Four cotton plants were used for each treatment. Compounds (2 mg) were dissolved in 1 mL of acetone solvent, forming stock solutions of 2000 ppm. The stock solutions were diluted 10× with 0.025% Tween 20 in water to obtain a test solution at 200 ppm. A hand-held Devilbliss sprayer was used for spraying a solution to both sides of cotton leaf until runoff. Reference plants (solvent check) were sprayed with the diluent only. Treated plants were held in a holding room for 8-9 days at approximately 82° F. and 50% RH prior to grading. Evaluation was conducted by counting the number of live nymphs per plant under a microscope.

Structure (SMILES)	MYZUPE rating (% Control of Mortality) [1]	BEMITA rating (% Control of Mortality) [2]
CC(=O)Nc1c[nH]nc1Cl [Compound 1b, N-(3-Chloro-1H-pyrazol-4-yl)acetamide]	B (More than 0-Less than 80)	B (More than 0-Less than 80)
CCN(C(=O)CCCl)c1cn(-c2cccnc2)nc1Cl [Compound 2a, 3-Chloro-N-(3-chloro-1-(pyridin-3-yl)-1H-pyrazol-4-yl)-N-ethylpropanamide]	A (80-100)	A (80-100)
CC(=O)Nc1cn(-c2cccnc2)nc1Cl [Compound 1c, N-(3-Chloro-1-(pyridin-3-yl)-1H-pyrazol-4-yl)acetamide]	B (More than 0-Less than 80)	B (More than 0-Less than 80)
CCN(C(=O)CCSCCC(F)(F)F)c1cn(-c2cccnc2)nc1Cl [Compound 6.2, N-(3-Chloro-1-(pyridin-3-yl)-1H-pyrazol-4-yl)-N-ethyl-3-((3,3,3-trifluoropropyl)thio)propanamide]	A (80-100)	A (80-100)
CCN(C(=O)CC[S+]([O-])CCC(F)(F)F)c1cn(-c2cccnc2)nc1Cl (centres unmarked) [Compound 7.2, N-(3-Chloro-1-(pyridin-3-yl)-1H-pyrazol-4-yl)-N-ethyl-3-((3,3,3-trifluoropropyl)sulfoxo)propanamide]	A (80-100)	A (80-100)
Cl.Nc1c[nH]nc1Cl [Compound 1a, 3-Chloro-1H-pyrazol-4-amine hydrochloride]	B (More than 0-Less than 80)	B (More than 0-Less than 80)
CCNc1cn(-c2cccnc2)nc1Cl [Compound 1d, 3-Chloro-N-ethyl-1-(pyridin-3-yl)-1H-pyrazol-amine]	B (More than 0-Less than 80)	B (More than 0-Less than 80)
